Experimental data as given in US8871812B2, “Therapeutic regimen comprising PEG-interferon, ribavirin and VX-950 for the treatment of hepatitis” (priority 2008, dated 2014).
Marks after values point to notes of the source that are not given here.

What was measured:
neopterin = assay: Serum neopterin concentration (competitive ELISA) during 14-day VX-950 dosing; assay type: in vivo, human; settings: 450 mg q8h and 1250 mg q12h dose groups, versus 750 mg q8h
Procedure: Accordingly, applicants determined the changes in serum neopterin concentration as a marker of monocyte/macrophage activity during administration of an inhibitor of (HCV) NS3·4A protease. As described herein, VX-950 was administered for 14 days in a randomized, double blind, placebo controlled, multiple-dose study in 34 patients infected with HCV genotype 1. Patients received VX-950 450 mg q8h (n=10), 750 mg q8h (n=8), 1250 mg q12h (n=10), or placebo (n=6). Serum neopterin concentrations were measured by a quantitative competitive ELISA (ELItest® Neopterin, Brahms, Hennigsdorf, Germany) at pretreatment, at day 7 and 14, and at day 10 of follow-up. The lower limit of detection (LLD) was 2 nmol/I. HCV RNA was assessed at frequent intervals during the study by real-time PCR (COBAS TAQMAN™ HCV Test; linear dynamic range of 3.0 ×10^1 to 2.0 ×10^8 HCV RNA IU/ml; LLD of 10 HCV RNA IU/ml; Roche Diagnostics, Branchburg, N.J.).

[1] = male, human, in vivo
Procedure: VX-950 was examined in a randomized, double-blind, placebo-controlled single-dose escalation study. 25 healthy male volunteers were enrolled and each received multiple single doses of VX-950 (at least 7 days apart, 3 doses of VX-950 at increasing dose levels) and 1 dose of placebo.
A dose escalation scheme was used that combined dose doubling and modified Fibonacci to be aggressive in the lower dose range and conservative in the higher dose range.
A pharmacokinetics analysis was performed using the statistical moment approach.

[2] = C208 Phase 2 study: safety, tolerability and discontinuations
WT-HCV protease-SEAP = settings: SCID mice expressing WT-HCV protease-SEAP; see WO 2005/025517; cited from earlier work
genotype 1 hepatitis C = assay: Phase 1b 14-day study of VX-950 alone or with peginterferon alfa-2a, followed by peginterferon alfa-2a/ribavirin: HCV RNA; assay type: in vivo, human
Description: (§1) This study was designed to provide information on the kinetics of HCV following treatment with VX-950 and peginterferon alfa-2a administered over 14 days.
(§2) This study randomized twenty treatment-naïve patients with chronic genotype 1 hepatitis C infection to three dosing arms (Table 6). At the completion of the 14-day study, 19 of 20 patients chose to begin peginterferon alfa-2a/ribavirin, starting within 5 days of completing the 14-day dosing period; as the other one declined to take the combination of Peg-IRN-2a and ribavirin. Clinic visits were conducted at the discretion of the investigators, after completion of the 1-week and 12-week study-mandated follow-up visits. Nineteen patients have been followed through 24 weeks after the completion of the study dosing. After discussion with the treating physicians, ten (4 in VX-950 and 6 in VX-950/peginterferon alfa-2a) patients stopped peginterferon alfa-2a/ribavirin treatment at 24 weeks.

[3] = set-up: species or system human; settings: in vivo
Description: as §1, §2

[4] = system: alanine aminotransferase (ALT); assay: Serum ALT level during 14-day VX-950 dosing; assay type: in vivo, human; settings: all groups, elevated at baseline
Description: The serum alanine aminotransferase (ALT) level can be measured using commercially available methods. Mean ALT levels, elevated at baseline, decreased during dosing in all groups. Mean ALT levels increased, returned toward baseline, in all dose groups during follow up.

NS3 protease = assay: In vitro cleavage of TRIF; assay type: biochemical, HCV
Description: Furthermore, NS3/4A is known to be involved in evasion of innate defenses, by e.g., TRIF-dependent mechanisms (as well as viral polyprotein processing). This immune evasion leads to viral persistence. Accordingly, a compound that inhibits both viral polyprotein processing and evasion of innate defenses is desirable.
TRIF binds to non-prime side of the NS3 protease active site. VX-950 binds to the same non-prime side of the active site as TRIF and blocks TRIP cleavage.

[5] = Oral bioavailability and plasma trough levels of VX-950; assay type: in vivo
Description: The trough level is the concentration that a drug drops down to in plasma just before next dose (i.e., the minimum concentration between doses). It is important, particularly in viral diseases, to maintain drug levels above a certain concentration to maintain appropriate inhibition of viral replication.
Accordingly, preferred pharmaceutical compositions of this invention are formulated for oral administration.

[6] = TVR 750 mg q8h + Peg-IFN alfa-2a + RBV (n = 40)
[7] = TVR 750 mg q8h + Peg-IFN alfa-2b + RBV (n = 42)
[8] = TVR 1125 mg q12h + Peg-IFN alfa-2a + RBV (n = 40)
[9] = TVR 1125 mg q12h + Peg-IFN alfa-2b + RBV (n = 39)
[10] = 1-week F/U, on-study, Peg-IFN-2a/RBV, N = 7 / 8 / 4 per group

## CCC[C@H](NC(=O)[C@@H]1[C@H]2CCC[C@H]2CN1C(=O)[C@@H](NC(=O)[C@@H](NC(=O)c1cnccn1)C1CCCCC1)C(C)(C)C)C(=O)C(=O)NC1CC1 [VX-950]
neopterin
  change in mean neopterin levels: decreases in mean neopterin levels were smaller
[1]
  VX-950 eliminated unchanged in the urine: Less than 2%
[2]; [6]
  AE: Anemia: 18 (45) n (%)
  AE: Asthenia: 11 (28) n (%)
  AE: Decreased appetite: 8 (20) n (%)
  AE: Diarrhea: 10 (25) n (%)
  AE: Fatigue: 15 (38) n (%)
  AE: Headache: 13 (33) n (%)
  AE: Influenza-like illness: 15 (38) n (%)
  AE: Nausea: 18 (45) n (%)
  AE: Pruritus: 16 (40) n (%)
  AE: Pyrexia: 8 (20) n (%)
  AE: Rash: 26 (65) n (%)
  AE: Vomiting: 7 (18) n (%)
[2]; [7]
  AE: Anemia: 14 (33) n (%)
  AE: Asthenia: 16 (38) n (%)
  AE: Decreased appetite: 4 (10) n (%)
  AE: Diarrhea: 9 (21) n (%)
  AE: Fatigue: 15 (36) n (%)
  AE: Headache: 18 (43) n (%)
  AE: Influenza-like illness: 19 (45) n (%)
  AE: Nausea: 14 (33) n (%)
  AE: Pruritus: 21 (50) n (%)
  AE: Pyrexia: 14 (33) n (%)
  AE: Rash: 15 (36) n (%)
  AE: Vomiting: 5 (12) n (%)
[2]; [8]
  AE: Anemia: 14 (35) n (%)
  AE: Asthenia: 7 (18) n (%)
  AE: Decreased appetite: 6 (15) n (%)
  AE: Diarrhea: 12 (30) n (%)
  AE: Fatigue: 14 (35) n (%)
  AE: Headache: 13 (33) n (%)
  AE: Influenza-like illness: 11 (28) n (%)
  AE: Nausea: 16 (40) n (%)
  AE: Pruritus: 19 (48) n (%)
  AE: Pyrexia: 8 (20) n (%)
  AE: Rash: 16 (40) n (%)
  AE: Vomiting: 7 (18) n (%)
[2]; [9]
  AE: Anemia: 19 (49) n (%)
  AE: Asthenia: 14 (36) n (%)
  AE: Decreased appetite: 15 (39) n (%)
  AE: Diarrhea: 13 (33) n (%)
  AE: Fatigue: 15 (39) n (%)
  AE: Headache: 16 (41) n (%)
  AE: Influenza-like illness: 20 (51) n (%)
  AE: Nausea: 22 (56) n (%)
  AE: Pruritus: 22 (56) n (%)
  AE: Pyrexia: 11 (28) n (%)
  AE: Rash: 14 (36) n (%)
  AE: Vomiting: 12 (31) n (%)
[2]; all T/PR arms
  electrocardiographic or vital signs parameters: No relevant changes
WT-HCV protease-SEAP
  Effect on elevated ALT levels: ameliorates elevated ALT levels
Genotype 1 hepatitis C; [10]
  HCV RNA below limit of detection (10 IU/mL) n: 1 n
  HCV RNA below limit of quantitation (30 IU/mL) n: 3 n
Genotype 1 hepatitis C; 12-week F/U, on-study, Peg-IFN-2a/RBV, N = 7 / 8 / 4 per group
  HCV RNA below limit of quantitation (30 IU/mL) n: 6 n
Genotype 1 hepatitis C; 14 days of VX-950 optionally with Peg-INF, followed by Peg-INF/ribavirin for additional 22 or 46 weeks
  Patients who achieved SVR: 10 of 15
Genotype 1 hepatitis C; N = 7 / 8 / 4 per group
  Undetectable HCV RNA at 24-week off study peg-IFN-2a/RBV treatment N: 7* N
Genotype 1 hepatitis C; all patients who received VX-950 (alone or with peginterferon)
  Patients with undetectable HCV RNA at week 24: 15 patients
Genotype 1 hepatitis C; as a single agent or in combination with peginterferon alfa-2a, 14 days
  Antiviral activity: rapid and profound antiviral activity
Genotype 1 hepatitis C; at least 14 days of VX-950 (alone or with peginterferon), treated for 24 weeks in total
  Patients who achieved SVR: 7 of 10
Genotype 1 hepatitis C; at least 14 days of VX-950 (alone or with peginterferon), treated for 48 weeks in total
  Patients who achieved SVR: 3 of 5
Genotype 1 hepatitis C; in vivo
  SVR in a patient receiving a 2 week treatment of VX-950: SVR was achieved
Genotype 1 hepatitis C; patients who stopped peg-IFN-2a/RBV at week 24
  Undetectable HCV RNA at 12 weeks follow-up after stopping peg-IFN-2a/RBV: 2 of 4
[3]
  Tolerability: well tolerated
[4]
  Mean ALT levels: decreased
NS3 protease
  cleavage of TRIF: inhibits in vitro cleavage of TRIF
[5]; 750 mg every 8 hours
  Plasma trough levels: higher trough levels
[5]; in vivo, po
  Oral bioavailability: orally bioavailable
